Molecules are shown by their SMILES. pKi: −log10 of the molar value.

The pKi is the Ki on a negative log10 scale, so that one unit is a factor of ten. Read a low pKi as a high Ki.

Chain of human emopamil binding protein and human 7-dehydrocholesterol reductase co-expressing cell membrane (Q15125 whole entry): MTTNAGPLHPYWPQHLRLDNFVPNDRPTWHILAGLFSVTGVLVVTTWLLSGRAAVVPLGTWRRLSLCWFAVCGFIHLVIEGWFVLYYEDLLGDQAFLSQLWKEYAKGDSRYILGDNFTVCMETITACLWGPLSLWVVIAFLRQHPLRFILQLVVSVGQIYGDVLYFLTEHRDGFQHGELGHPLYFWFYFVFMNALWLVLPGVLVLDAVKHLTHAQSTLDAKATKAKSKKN

The target in this assay is human emopamil binding protein and human 7-dehydrocholesterol reductase co-expressing cell membrane (Homo sapiens (Human), UniProt Q15125). The experiment in a line: hEBP-DHCR7 radioligand filtration binding assay with [3H]-Compound 118A*. Particulars: radioligand [3H]-Compound 118A*; HEK293 membrane co-expressing hEBP and DHCR7. The gist of the method:
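HEK293 membranes transiently co-expressing hEBP and hDHCR7 (10 μg/well) were incubated with [3H]-Compound 118A* (added at 25 nM) and compounds (8 doses, final 0.06–5000 nM, n=2) for 3 h at 22 °C. Bound radioactivity was read after PEI-treated GF/B filtration. IC50 came from a Hill fit of % inhibition and was converted to Ki.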
`CCC(C)(C)c1ccc(CC(C)CN2CCC3(C2)CS(=O)(=O)C3)cc1` (racemic) [Compound 107, 6-(2-Methyl-3-(4-(tert-pentyl)phenyl)propyl)-2-thia-6-azaspiro[3.4]octane 2,2-dioxide] had a pKi of 7.99.
Next, `CC(Cc1ccc(C2CCC2)cc1)CN1CCC2(C1)CS(=O)(=O)C2` (racemic) [Compound 109A, 6-(3-(4-cyclobutylphenyl)-2-methylpropyl)-2-thia-6-azaspiro[3.4]octane 2,2-dioxide]: 7.90; `COC(Cc1ccc(C(F)(F)F)cc1)CN1CCC2(C1)CS(=O)(=O)C2` (racemic) [Example 143, (S)-6-(2-Methoxy-3-(4-(trifluoromethyl)phenyl)propyl)-2-thia-6-azaspiro[3.4]octane 2,2-dioxide and (R)-6-(2-methoxy-3-(4-(trifluoromethyl)phenyl)propyl)-2-thia-6-azaspiro[3.4]octane 2,2-dioxide]: 7.90.
In the case of `C[C@@H](Cc1ccc(C(F)(F)F)cc1)CN1CCC2(C1)CS(=O)(=O)C2` (single isomer, unassigned) [114A*] it was 7.74; in that of `C[C@H](Cc1ccc(C(F)(F)F)cc1)CN1CCC2(C1)CS(=O)(=O)C2` (single isomer, unassigned) [114B*], 8.23; in that of `C[C@@H](Cc1ccc(C(F)(F)F)nc1)CN1CCC2(C1)CS(=O)(=O)C2` (single isomer, unassigned) [118A*], 7.66.
In the case of `C[C@@H](Cc1cnc(C(F)(F)F)nc1)CN1CCC2(CC1)CS(=O)(=O)C2` (single isomer, unassigned) [215A*] it was 6.98.
In the case of `C[C@H](Cc1cnc(C(F)(F)F)nc1)CN1CCC2(CC1)CS(=O)(=O)C2` (single isomer, unassigned) [215B*], the negative-log Ki (pKi) is 6.87.
Next, `C[C@@H](CN1CCC2(CC1)CS(=O)(=O)C2)Oc1ccc(F)c(F)c1` (single isomer, unassigned) [221A*]: 7.59; `O=S1(=O)CC2(CCN(CC[C@H](F)c3ccc(C(F)(F)F)cc3)C2)C1` (single isomer, unassigned) [Compound 122B]: 7.86; `C[C@@H](Cc1ccnc(C(F)(F)F)c1)CN1CCC2(C1)CS(=O)(=O)C2` (single isomer, unassigned) [Compound 126A]: 7.32.
`C[C@H](Cc1ccnc(C(F)(F)F)c1)CN1CCC2(C1)CS(=O)(=O)C2` (single isomer, unassigned) [Compound 126B] had a pKi of 7.17. The pKi values of the last two compounds are within 0.2 log units of each other.
Compound `C[C@@H](Cc1ccc(C(F)F)cc1)CN1CCC2(C1)CS(=O)(=O)C2` (single isomer, unassigned) [Compound 128A] showed a negative-log Ki (pKi) of 7.53.
With `CC(C)(CN1CC[C@@]2(CCS(=O)(=O)C2)C1)Oc1ccc(C(F)(F)F)cc1` (single isomer, unassigned) [Compound 141A], the pKi was 7.59.
`CC(C)(CN1CC[C@]2(CCS(=O)(=O)C2)C1)Oc1ccc(C(F)(F)F)cc1` (single isomer, unassigned) [Compound 141B] gave a pKi of 7.23. This pKi is 0.36 log units lower than that of the compound before.
Next, `C[C@@H](Cc1cnc(C(F)(F)F)nc1)CN1CCC2(C1)CS(=O)(=O)C2` (single isomer, unassigned) [Compound 145A]: 7.16; `CC(C)(Cc1ccc(C(F)(F)F)nc1)CN1CC[C@@]2(CCS(=O)(=O)C2)C1` (single isomer, unassigned) [Compound 148B]: 7.54; `O=S1(=O)CC2(CCN(CCOc3ccc(C(F)(F)F)cc3)C2)C1` [Compound 112, 6-(2-(4-(Trifluoromethyl)phenoxy)ethyl)-2-thia-6-azaspiro[3.4]octane-2,2-dioxide]: 7.87.
In the case of `O=S1(=O)CC2(CCN(CCOc3ccc(C(F)(F)F)nc3)CC2)C1` [Compound 230, 7-(2-((6-(Trifluoromethyl)pyridin-3-yl)oxy)ethyl)-2-thia-7-azaspiro[3.5]nonane 2,2-dioxide] it was 6.13.
Next, `CC(C)(CN1CCC2(C1)CS(=O)(=O)C2)Oc1ccc(C2CCC2)cc1` [Example 129, 6-(2-(4-Cyclobutylphenoxy)-2-methylpropyl)-2-thia-6-azaspiro[3.4]octane-2,2-dioxide]: 7.93; `CC(C)(CN1CCC2(C1)CS(=O)(=O)C2)Oc1cccc(C(F)(F)F)c1` [Example 130, 6-(2-Methyl-2-(3-(trifluoromethyl)phenoxy)propyl)-2-thia-6-azaspiro[3.4]octane-2,2-dioxide]: 7.88.
Consider `CC(C)(CN1CCC2(C1)CS(=O)(=O)C2)Oc1cccc(OC(F)(F)F)c1` [Example 131, 6-(2-Methyl-2-(3-(trifluoromethoxy)phenoxy)propyl)-2-thia-6-azaspiro[3.4]octane 2,2-dioxide], for which the pKi was 6.93.
In the case of `CC(C)(CN1CCC2(C1)CS(=O)(=O)C2)Oc1ccc(C(F)(F)F)nc1` [Example 135, 6-(2-Methyl-2-((6-(trifluoromethyl)pyridin-3-yl)oxy)propyl)-2-thia-6-azaspiro[3.4]octane-2,2-dioxide] it was 7.40; in that of `CC(C)(CN1CCC2(C1)CS(=O)(=O)C2)Oc1ccc(OC(F)(F)F)cc1` [Example 136, 6-(2-Methyl-2-(4-(trifluoromethoxy)phenoxy)propyl)-2-thia-6-azaspiro[3.4]octane 2,2-dioxide], 7.85; in that of `CC(C)(CN1CCC2(CC1)CS(=O)(=O)C2)Oc1ccc(C(F)(F)F)cc1` [Example 138, 7-(2-Methyl-2-(4-(trifluoromethyl)phenoxy)propyl)-2-thia-7-azaspiro[3.5]nonane 2,2-dioxide], 8.30.
`CC(C)(Cc1ccc(C2CCC(F)(F)CC2)c(Cl)c1)CN1CCC2(C1)CS(=O)(=O)C2` [Example 139, 6-(3-(3-Chloro-4-(4,4-difluorocyclohexyl)phenyl)-2,2-dimethylpropyl)-2-thia-6-azaspiro[3.4]octane 2,2-dioxide] had a negative-log Ki (pKi) of 8.03.
Compound `CC(C)(Cc1ccc(C(F)(F)F)nc1)CN1CCC2(C1)CS(=O)(=O)C2` [Example 140, 6-(2,2-Dimethyl-3-(6-(trifluoromethyl)pyridin-3-yl)propyl)-2-thia-6-azaspiro[3.4]octane-2,2-dioxide] gave a pKi of 7.70.
In the case of `CC(C)(CN1CCC2(C1)CS(=O)(=O)C2)Oc1cnc(C(F)(F)F)nc1` [Example 144, 6-(2-Methyl-2-((2-(trifluoromethyl)pyrimidin-5-yl)oxy)propyl)-2-thia-6-azaspiro[3.4]octane-2,2-dioxide] it was 7.02; in that of `O=S1(=O)CC2(CCN(CC3(Cc4ccc(C(F)(F)F)nc4)CC3)C2)C1` [Example 157, 6-((1-((6-(Trifluoromethyl)pyridin-3-yl)methyl)cyclopropyl)methyl)-2-thia-6-azaspiro[3.4]octane 2,2-dioxide], 7.76.
In the case of `O=S1(=O)CCC2(CC1)CN(CCOc1ccc(C(F)(F)F)cc1)C2` [Example 201, 2-(2-(4-(Trifluoromethyl)phenoxy)ethyl)-7-thia-2-azaspiro[3.5]nonane 7,7-dioxide] it was 7.59.

Values taken from patent US20240400579A1, “SPIROCYCLIC MODULATORS OF CHOLESTEROL BIOSYNTHESIS AND THEIR USE FOR PROMOTING REMYELINATION” (GENENTECH, INC., priority 2021, published 2024).
